Experiments:
Assay type in all cases: cell-based
Bacillus cereus = assay: agar plate disc-diffusion, antibacterial inhibition zone; details: nutrient agar, 37° C., 48 hours
Method: (§1) The agar plate disc-diffusion method was applied. […] The discs were then placed onto the surface of agar plates (nutrient agar for bacteria and Sabouraud's dextrose agar for fungi) seeded with the test organism. Each plate contained 15 mL of the agar medium, previously seeded with 0.2 mL of the broth culture of each organism pregrown for 18 hours. The plates were incubated at 37° C. for 48 hours, and 72 hours for fungi. The inhibition zones were measured in mm. Discs impregnated with DMSO were used as a control, and its inhibition zone was subtracted from the tested compound actual inhibition zone.

Escherichia coli = assay: as above; details: nutrient agar, 37° C., 48 hours
Method: as §1

Pseudomonas aeruginosa = assay: as above; details: nutrient agar, 37° C., 48 hours
Method: as §1

Staphylococcus aureus = assay: as above; details: nutrient agar, 37° C., 48 hours
Method: as §1

Aspergillus flavus = assay: agar plate disc-diffusion, antifungal inhibition zone; details: Sabouraud's dextrose agar, 72 hours
Method: as §1

[1] = tested on: Chrysosporium keratinophilum; assay: as above; details: Sabouraud's dextrose agar, 72 hours
Method: as §1

[2] = A = concentration of comp. = 10,000 μL
[3] = B = concentration of comp. = 30,000 μL
[4] = C = concentration of comp. = 50,000 μL

SMILES: CCOC(=O)CCSc1nnc(-c2cccc(F)c2)n1-c1ccccc1 [III, ethyl 3-(5-(3-fluorophenyl)-4-phenyl-4H-1,2,4-triazol-3-ylthio)propanoate]
- inhibition zone, Bacillus Cereus, A (Bacillus cereus; [2]): 25 mm
- inhibition zone, Bacillus Cereus, B (Bacillus cereus; [3]): 28 mm
- inhibition zone, Bacillus Cereus, C (Bacillus cereus; [4]): 38 mm
- inhibition zone, Escherichia coli, A (Escherichia coli; [2]): 27 mm
- inhibition zone, Escherichia coli, B (Escherichia coli; [3]): 36 mm
- inhibition zone, Escherichia coli, C (Escherichia coli; [4]): 53 mm
- inhibition zone, Pseudomonas aeruginosa, A (Pseudomonas aeruginosa; [2]): 26 mm
- inhibition zone, Pseudomonas aeruginosa, B (Pseudomonas aeruginosa; [3]): 29 mm
- inhibition zone, Pseudomonas aeruginosa, C (Pseudomonas aeruginosa; [4]): 46 mm
- inhibition zone, Staphylococcus aureus, A (Staphylococcus aureus; [2]): 17 mm
- inhibition zone, Staphylococcus aureus, B (Staphylococcus aureus; [3]): 21 mm
- inhibition zone, Staphylococcus aureus, C (Staphylococcus aureus; [4]): 30 mm
- inhibition zone, Aspergillus flavus, A (Aspergillus flavus; [2]): 25 mm
- inhibition zone, Aspergillus flavus, B (Aspergillus flavus; [3]): 28 mm
- inhibition zone, Aspergillus flavus, C (Aspergillus flavus; [4]): 34 mm
- inhibition zone, Chrysosporium keratinophilum, A [1, 2]: 26 mm
- inhibition zone, Chrysosporium keratinophilum, B [1, 3]: 28 mm
- inhibition zone, Chrysosporium keratinophilum, C [1, 4]: 46 mm

From patent US11912671B1, “Ethyl 3-(5-(3-fluorophenyl)-4-phenyl-4H-1,2,4- triazol-3-ylthio)propanoate as an antimicrobial compound” (KING FAISAL UNIVERSITY, priority 2023, dated 2024)
